Where “and” joins values, the source holds several entries; their conditions need not be identical. Identical values can stand only once. Entries after “also recorded” stand apart in the source; their conditions may differ. Non-standard residues stand in square brackets, D forms with d. Residues, ends and D or L forms follow the SMILES beside them. pGlu = O=C1CC[C@@H](C(=O)O)N1
Assays:
[1] = relative to LHRH; cited from earlier work
[2] = tested on: release of FSH; test: Release of FSH in rats after sc injection; format: in vivo; details: dose and time as stated in the source
[3] = tested on: release of LH; test: Release of LH in rats after sc injection; format: in vivo; details: for release of LH compared with LHRH: sc injection, dose and time as stated in the source; for release of LH: in our assays
Description: (§1) The data on the release of LH and FSH in rats by modifications of LHRH with one structural change are in Table II.
(§2) Exclusive of the salmon-LHRH, only one of the six decapeptides with two structural changes had significant activity.

[4] = tested on: release of FSH; test: Release of FSH in rats after sc injection; format: in vivo; details: for FSH % change: LHRH = 100; for release of FSH: in our assays
Description: as §1, §2

[5] = tested on: rat pituitary cells; details: cited from earlier work; for activities to release FSH compared with LHRH (Table I): fraction of the activities of LHRH or words
[6] = tested on: rat anterior pituitary cells in primary culture; details: cited from earlier work; for activities to release LH compared with LHRH (Table I): fraction of the activities of LHRH or words; for activity (potency) to release LH relative to P/O LHRH: in vitro, rat pituitary cells, Sherwood et al. (a), Miyamoto et al. (b)
[7] = relative to LHRH; cited from earlier work; remark: listed apart in the source
[8] = 60 min. after sc injection, 300 ng, LHRH = 100
[9] = 60 min. after sc injection, 3000 ng, LHRH = 100
[10] = release 15 min. after sc injection, dosage of peptide 100 ng
[11] = release 15 min. after sc injection, dosage of peptide 1000 ng
[12] = release 60 min. after sc injection, dosage of peptide 300 ng
[13] = release 60 min. after sc injection, dosage of peptide 3000 ng
[14] = 60 min. after sc injection, 300 ng
[15] = 60 min. after sc injection, 3000 ng
[16] = 30 min. after sc injection, 1000 ng, LHRH = 100
[17] = release 30 min. after sc injection, dosage of peptide 100 ng
[18] = release 30 min. after sc injection, dosage of peptide 1000 ng
[19] = 30 min. after sc injection, 50 ng, LHRH = 100
[20] = release 30 min. after sc injection, dosage of peptide 50 ng
[21] = 15 min. after sc injection, 100 ng, experiment marked *
[22] = 15 min. after sc injection, 1000 ng, experiment marked *
[23] = release 15 min. after sc injection, dosage of peptide 50 ng

[Phe^5 ]-LHRH (QHWSFGLRPG; Gonadoliberin-1; UniProt P01148 24-33, looked up, variant Y5F) [literature agonist analog of LHRH, reference compound]
agonist activity in vivo [1]: 64%

CC(C)C[C@H](NC(=O)[C@H](Cc1c[nH]c2ccccc12)NC(=O)CNC(=O)[C@H](Cc1c[nH]cn1)NC(=O)[C@H](CO)NC(=O)[C@H](Cc1c[nH]c2ccccc12)NC(=O)[C@H](Cc1c[nH]cn1)NC(=O)[C@@H]1CCC(=O)N1)C(=O)N1CCC[C@H]1C(=O)NCC(N)=O [[His^5 Trp^7 Leu^8]--LHRH, p-Glu His Trp Ser His Gly Trp Leu Pro Gly-NH2] ([pGlu]HWSHGWLPG-NH2)
release of FSH compared with LHRH [2]: equivalent in activity to LHRH | release of FSH compared with LHRH ([2]; Trp^7 Leu^8 ]-LHRH): released as much FSH as LHRH | LH % change ([3]; 15 min. after sc injection, 100 ng, LHRH = 100): 38% | LH % change ([3]; 15 min. after sc injection, 1000 ng, LHRH = 100): 40% | LH % change [3, 8]: 23% | LH % change [3, 9]: 6% | LH released, % of the LH released by LHRH ([3]; levels of 100 and 1000 ng): up to 50% | LH [3, 10]: 9 ng/mL | LH [3, 11]: 23 ng/mL | LH [3, 12]: 2.5 ng/mL | LH [3, 13]: 5 ng/mL | FSH % change [4, 14]: 62% | FSH % change [4, 15]: 32% | FSH [4, 10]: 383 ng/mL | FSH [4, 11]: 445 ng/mL | FSH [4, 12]: 369 ng/mL | FSH [4, 13]: 376 ng/mL

CC(C)C[C@H](NC(=O)CNC(=O)[C@H](Cc1c[nH]cn1)NC(=O)[C@H](CO)NC(=O)[C@H](Cc1c[nH]c2ccccc12)NC(=O)[C@H](Cc1c[nH]cn1)NC(=O)[C@@H]1CCC(=O)N1)C(=O)N[C@@H](CCCNC(=N)N)C(=O)N1CCC[C@H]1C(=O)NCC(N)=O [[His^5]--LHRH, p-Glu His Trp Ser His Gly Leu Arg Pro Gly-NH2]
release of FSH compared with LHRH [2]: twice as active as LHRH at the high dosage; also recorded: two times as effective in the release of FSH at the higher dose level | LH [3, 12]: 14 ng/mL | LH [3, 13]: 142 ± 29 ng/mL and 142 ng/mL | release of LH compared with LHRH [3]: as active as LHRH at two dose levels; also recorded: equivalent to LHRH in the release of LH | FSH % change [4, 15]: 229% | FSH [4, 12]: 652 ng/mL | FSH [4, 13]: 2684 ng/mL

NC(=O)CNC(=O)[C@@H]1CCCN1C(=O)[C@H](Cc1ccc(O)cc1)NC(=O)[C@H](Cc1c[nH]c2ccccc12)NC(=O)CNC(=O)[C@H](Cc1c[nH]cn1)NC(=O)[C@H](CO)NC(=O)[C@H](Cc1c[nH]c2ccccc12)NC(=O)[C@H](Cc1c[nH]cn1)NC(=O)[C@@H]1CCC(=O)N1 [[His^5 Trp^7 Tyr^8] (Chicken II), pGlu--His--Trp--Ser--His--Gly--Trp--Tyr--Pro--Gly--NH2, reference compound] ([pGlu]HWSHGWYPG-NH2)
activities to release FSH compared with LHRH (Table I) [5]: about 1/3 | activity to release FSH relative to P/O LHRH ([5]; in vitro, rat pituitary cells, Miyamoto et al. (b)): 41% | LH % change ([3]; 30 min. after sc injection, 100 ng, LHRH = 100): 18% | LH % change [3, 16]: 39% | LH % change [3, 8]: 32% | LH % change [3, 9]: 10% | release of LH ([3]; dose level 100 ng): 18% | release of LH ([3]; dose level 1000 ng): 30% | LH [3, 17]: 2 ng/mL | LH [3, 18]: 14 ng/mL | LH [3, 12]: 3.5 ng/mL | LH [3, 13]: 8.4 ng/mL | activities to release LH compared with LHRH (Table I) [6]: about 1/3 | activity (potency) to release LH relative to P/O LHRH [6]: 32% | FSH % change ([4]; 30 min. after sc injection, 100 ng): 62% | FSH % change [4, 14]: 58% | FSH % change [4, 15]: 55% | release of FSH ([4]; dose level 100 ng): 62% | release of FSH ([4]; dose level 1000 ng): 86% | FSH [4, 17]: 305 ng/mL | FSH [4, 18]: 596 ng/mL | FSH [4, 12]: 344 ng/mL | FSH [4, 13]: 644 ng/mL

N=C(N)NCCC[C@H](NC(=O)[C@H](Cc1c[nH]c2ccccc12)NC(=O)CNC(=O)[C@H](Cc1ccc(O)cc1)NC(=O)[C@H](CO)NC(=O)[C@H](Cc1c[nH]c2ccccc12)NC(=O)[C@H](Cc1c[nH]cn1)NC(=O)[C@@H]1CCC(=O)N1)C(=O)N1CCC[C@H]1C(=O)NCC(N)=O [[Trp^7]--LHRH, p-Glu His Trp Ser Tyr Gly Trp Arg Pro Gly-NH2]
release of FSH compared with LHRH [2]: as active as LHRH; also recorded: equivalent to LHRH in the release of both LH and FSH | LH [3, 12]: 14.5 ng/mL | LH [3, 13]: 115 ± 19 ng/mL and 115 ng/mL | release of LH compared with LHRH [3]: as active as LHRH at two dose levels; also recorded: equivalent to LHRH in the release of both LH and FSH | agonist activity in vivo [1]: 80% | FSH [4, 12]: 543 ng/mL | FSH [4, 13]: 1259 ng/mL

[3(2-Nal)^3 ]-LHRH
agonist activity in vitro, as active as LHRH [7]: 200%

CC(C)C[C@H](NC(=O)[C@H](Cc1c[nH]c2ccccc12)NC(=O)CNC(=O)[C@H](Cc1ccc(O)cc1)NC(=O)[C@H](CO)NC(=O)[C@H](Cc1c[nH]c2ccccc12)NC(=O)[C@H](Cc1c[nH]cn1)NC(=O)[C@@H]1CCC(=O)N1)C(=O)N1CCC[C@H]1C(=O)NCC(N)=O [[Trp^7 Leu^8]--LHRH, pGlu--His--Trp--Ser--Tyr--Gly--Trp--Leu--Pro--Gly--NH2, reference compound] ([pGlu]HWSYGWLPG-NH2)
activities to release FSH compared with LHRH (Table I) [5]: extremely low activities | LH % change [3, 9]: 3.0% | LH [3, 13]: 2.5 ng/mL | activities to release LH compared with LHRH (Table I) [6]: extremely low activities | activity (potency) to release LH relative to P/O LHRH [6]: 2-3% | FSH % change [4, 15]: 22% | FSH [4, 13]: 258 ng/mL

[N-MeLeu^7 ]-LHRH
agonist activity in vitro, as active as LHRH [7]: 100%

[Ala^9 ]-LHRH (QHWSYGLRAG; Gonadoliberin-1; UniProt P01148 24-33, looked up, variant P9A) [literature agonist analog of LHRH]
agonist activity in vitro, as active as LHRH [7]: 65%

CC(C)C[C@H](NC(=O)CNC(=O)[C@H](Cc1c[nH]cn1)NC(=O)[C@H](CO)NC(=O)[C@H](Cc1c[nH]c2ccccc12)NC(=O)[C@H](Cc1c[nH]cn1)NC(=O)[C@@H]1CCC(=O)N1)C(=O)N[C@@H](Cc1ccc(O)cc1)C(=O)N1CCC[C@H]1C(=O)NCC(N)=O [[His^5 Tyr^8]--LHRH, p-Glu His Trp Ser His Gly Leu Tyr Pro Gly-NH2] ([pGlu]HWSHGLYPG-NH2)
LH % change [3, 19]: 3% | LH % change [3, 16]: 4% | LH % change [3, 9]: 3.4% | LH [3, 20]: 0.5 ng/mL | LH [3, 18]: 5.0 ng/mL | LH [3, 13]: 2.8 ng/mL | FSH % change ([4]; 30 min. after sc injection, 1000 ng): 3% | FSH % change [4, 15]: 42% | FSH [4, 20]: 235 ng/mL | FSH [4, 18]: 534 ng/mL | FSH [4, 13]: 495 ng/mL

N=C(N)NCCC[C@H](NC(=O)[C@H](Cc1c[nH]c2ccccc12)NC(=O)CNC(=O)[C@H](Cc1c[nH]cn1)NC(=O)[C@H](CO)NC(=O)[C@H](Cc1c[nH]c2ccccc12)NC(=O)[C@H](Cc1c[nH]cn1)NC(=O)[C@@H]1CCC(=O)N1)C(=O)N1CCC[C@H]1C(=O)NCC(N)=O [[His^5 Trp^7]--LHRH, p-Glu His Trp Ser His Gly Trp Arg Pro Gly-NH2] ([pGlu]HWSHGWRPG-NH2)
release of FSH compared with LHRH [2]: as active as LHRH; also recorded: equivalent to that from LH; also recorded: released significantly more LH and FSH than did LHRH at a dosage of 50 ng; also recorded: equivalent to that released by the same dosage of LHRH; also recorded: higher than that for LH; also recorded: both peptides had comparable activities | LH % change ([3]; 15 min. after sc injection, 50 ng, LHRH = 100): 188% | LH [3, 21]: 13 ng/mL | LH [3, 22]: 23 ng/mL | LH % change ([3]; 15 min. after sc injection, 1000 ng, experiment marked *, LHRH* = 100): 59% | LH % change [3, 19]: 67% | LH % change [3, 16]: 40% | LH [3, 23]: 30 ± 3 ng/mL | LH [3, 10]: 30 ng/mL | LH [3, 11]: 39 ng/mL and 78 ng/mL | LH [3, 20]: 12 ng/mL | LH [3, 18]: 51 ng/mL | LH [3, 12]: 26.0 ng/mL | LH [3, 13]: 138 ng/mL | release of LH compared with LHRH [3]: as active as LHRH; also recorded: significantly positive, but less than that at the higher dosage; also recorded: released significantly more LH and FSH than did LHRH at a dosage of 50 ng; also recorded: equivalent to that released by the same dosage of LHRH; also recorded: significantly positive, but lower than that released at the higher dose level; also recorded: both peptides had comparable activities | FSH % change ([4]; 15 min. after sc injection, 50 ng): 121% | FSH [4, 21]: 346 ng/mL | FSH [4, 22]: 456 ng/mL | FSH [4, 23]: 663 ng/mL | FSH [4, 10]: 502 ng/mL | FSH [4, 11]: 562 ng/mL and 429 ng/mL | FSH [4, 20]: 387 ng/mL | FSH [4, 18]: 857 ng/mL | FSH [4, 12]: 624 ng/mL | FSH [4, 13]: 1448 ng/mL

Reference: patent US4721775A, “Effective peptides related to the luteinizing hormone releasing hormone from L-amino acids” (Board of Regents, The University of Texas System, priority 1985, dated 1988)
